Measured values from patent publication US6509344B1, “Indenoisoquinolines as antineoplastic agents” (The United States of America as represented by the …, priority 1998, dated 2003).
Like-named read-outs stand apart in the source and are kept apart here.

Columns and labels:
[1] = system: SN12C; test: NCI human cancer cell line screen (COMPARE screening), Renal SN12C; assay type: cell-based
Text: (§1) Considering the diversity of cancer in terms of cell type, morphology, growth rate and other cellular characteristics, the U.S. National Cancer Institute (NCI) has developed a “disease-oriented” approach to anticancer activity screening (M. R. Boyd, in “Principle of Practice of Oncology” […]. Rosenberg (Eds.) Vol. 3, PPO Update, No. 10, 1989). This in vitro prescreening system is based on the measurement of anticancer cytotoxicity against human cancer cell line panels consisting of approximately 60 cell lines of major human cancers (including leukemia and slower growing tumor cells such as lung, colon, breast, skin, kidney, etc.) and is referred hereinafter as “COMPARE” screening. An important advantage of the new in vitro screening panels is the opportunity to facilitate identification of compounds that are selectively more cytotoxic to cells of certain types of cancers, thus increasing the ability to select compounds for further study with respect to specific diseases. The indenoisoquinolines were examined for antiproliferative activity against the human cancer cell lines in the National Cancer Institute screen (COMPARE screening), in which the activity of each compound was evaluated with approximately […] different cancer cell lines of diverse tumor origins.

[2] = system: DU-145; test: NCI human cancer cell line screen (COMPARE screening), Prostate DU-145; assay type: cell-based
Text: as §1

[3] = system: UACC-62; test: NCI human cancer cell line screen (COMPARE screening), Melanoma UACC-62; assay type: cell-based
Text: as §1

[4] = system: human topoisomerase II; test: Topoisomerase II-mediated DNA cleavage assay (5'-end-labeled human c-myc DNA); assay type: biochemical
[5] = system: MDA-MB-435; test: NCI human cancer cell line screen (COMPARE screening), Breast MDA-MB-435; assay type: cell-based
Text: as §1

[6] = system: HOP-62; test: NCI human cancer cell line screen (COMPARE screening), Lung HOP-62; assay type: cell-based
Text: as §1

[7] = system: OVCAR-3; test: NCI human cancer cell line screen (COMPARE screening), Ovarian OVCAR-3; assay type: cell-based
Text: as §1

[8] = system: approximately 55 different cancer cell lines of diverse tumor origins; test: NCI screen mean graph midpoint over all cell lines tested; assay type: cell-based, human; details: for IC50: average GI50 for all cell lines tested (approximately 55), values outside test range taken as 10^-8 or 10^-4 molar, read-out: MGM (mean graph midpoint)
Text: as §1

[9] = system: SF-539; test: NCI human cancer cell line screen (COMPARE screening), CNS SF-539; assay type: cell-based
Text: as §1

[10] = biological target: T1, topoisomerase I (Homo sapiens, UniProt P11387); test: Topoisomerase I-mediated DNA cleavage assay (3'-end-labeled 161 bp pBluescript SK(-) fragment); assay type: biochemical; details: for Top 1 Cleavage: relative to the activity of 1 μM camptothecin
T1 sequence (P11387 1-765): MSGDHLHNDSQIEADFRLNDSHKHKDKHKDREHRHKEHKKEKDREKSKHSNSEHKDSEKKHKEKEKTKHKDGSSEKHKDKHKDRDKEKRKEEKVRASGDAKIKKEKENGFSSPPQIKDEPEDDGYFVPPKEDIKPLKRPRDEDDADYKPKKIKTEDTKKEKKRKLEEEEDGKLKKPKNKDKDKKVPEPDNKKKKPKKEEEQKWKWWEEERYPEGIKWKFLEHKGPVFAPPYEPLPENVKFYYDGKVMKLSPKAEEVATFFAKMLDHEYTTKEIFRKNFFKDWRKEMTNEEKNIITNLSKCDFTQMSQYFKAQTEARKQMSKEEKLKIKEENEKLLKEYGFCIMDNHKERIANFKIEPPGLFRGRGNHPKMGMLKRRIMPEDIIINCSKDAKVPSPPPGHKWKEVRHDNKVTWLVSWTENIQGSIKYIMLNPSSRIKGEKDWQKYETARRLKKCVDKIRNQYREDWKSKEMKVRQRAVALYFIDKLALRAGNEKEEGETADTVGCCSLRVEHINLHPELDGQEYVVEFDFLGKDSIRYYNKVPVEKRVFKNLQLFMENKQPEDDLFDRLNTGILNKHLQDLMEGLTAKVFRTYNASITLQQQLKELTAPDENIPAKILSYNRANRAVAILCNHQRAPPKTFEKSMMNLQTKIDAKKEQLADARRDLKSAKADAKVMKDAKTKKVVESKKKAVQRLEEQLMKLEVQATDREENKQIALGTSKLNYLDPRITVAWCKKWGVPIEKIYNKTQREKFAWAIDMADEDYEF
Procedure: Topoisomerase I-Mediated DNA Cleavage Reactions Using 3′-End-labeled 161 BP Plasmid DNA
The 161 bp fragment from pBluescript SK(−) phagemid DNA (Stratagene, La Jolla, Calif.) was cleaved with the restriction endonuclease Pvu II and Hind III (New England Biolabs, Beverly, Mass.) in supplied NE buffer 2 (10 μL reactions) for 1 h at 37° C., separated by electrophoresis in a 1% agarose gel made in 1×TBE buffer. The 161 bp fragment was eluted from the gel slice (centrilutor by Amicon) and concentrated in a centricon 50 centrifugal concentrator (Amicon, Beverly, Mass.). Approximately 200 ng of the fragment was 3′-end-labeled at the Hind III site by fill-in reaction with [alpha-^32P]-dCTP and 0.5 mM dATP, dGTP, and dTTP, in React 2 buffer (50 mM Tris-HCl, pH 8.0, […], 50 mM NaCl) with 0.5 units of DNA polymerase I (Klenow fragment). Labeling reactions were followed by phenol-chloroform extraction and ethanol precipitation. The resulting 161 bp 3′-endlabeled DNA fragment was resuspended in water. Aliquots (approximately 50,000 dpm/reaction) were incubated with topoisomerase I at 30° C. for 15 min in the presence of the indicated drug. Reactions were terminated by adding 0.5% SDS. After ethanol precipitation, the samples were resuspended in loading buffer (80% formamide, 10 mM sodium hydroxide, 1 mM sodium EDTA, 0.1% xylene cyanol, and 0.1% bromophenol blue, pH 8.0), and separated in a denaturing gel (16% polyacrylamide, 7 M urea) run at 51° C. The gel was dried and visualized by using a Phosphoimager and ImageQuant software (Molecular Dynamics, Sunnyvale, Calif.).

[11] = system: HCT-116; test: NCI human cancer cell line screen (COMPARE screening), Colon HCT-116; assay type: cell-based
Text: as §1

[12] = Homo sapiens, SN12C, concentration causing 50% growth inhibition, read-out: Cytotoxicity (G150 in μM) Renal SN12C
[13] = Homo sapiens, DU-145, concentration causing 50% growth inhibition, read-out: Cytotoxicity (G150 in μM) Prostate DU-145
[14] = Homo sapiens, UACC-62, concentration causing 50% growth inhibition, read-out: Cytotoxicity (G150 in μM) Melanoma UACC-62
[15] = Homo sapiens, MDA-MB-435, concentration causing 50% growth inhibition, read-out: Cytotoxicity (G150 in μM) Breast MDA-MB-435
[16] = Homo sapiens, HOP-62, concentration causing 50% growth inhibition, read-out: Cytotoxicity (G150 in μM) Lung HOP-62
[17] = Homo sapiens, OVCAR-3, concentration causing 50% growth inhibition, read-out: Cytotoxicity (G150 in μM) Ovarian OVCAR-3
[18] = Homo sapiens, SF-539, concentration causing 50% growth inhibition, read-out: Cytotoxicity (G150 in μM) CNS SF-539
[19] = Homo sapiens, HCT-116, concentration causing 50% growth inhibition, read-out: Cytotoxicity (G150 in μM) Colon HCT-116

Row | IC50 [2] [µM] | IC50 [3] [µM] | induction of topoisomerase II cleavage complexes [4] | IC50 [5] [µM] | IC50 [6] [µM] | IC50 [7] [µM] | Top 1 Cleavage [10] | IC50 [11] [µM] | Compound | cytotoxicity (MGM) relative to lead compound 1 [8] | IC50 [8] [µM] | IC50 [1, 12] [µM] | IC50 [2, 13] [µM] | IC50 [3, 14] [µM] | IC50 [5, 15] [µM] | IC50 [6, 16] [µM] | IC50 [7, 17] [µM] | IC50 ([8]; Homo sapiens) [µM] | IC50 [9, 18] [µM] | IC50 [11, 19] [µM] | further results
1 | 0.77 | 0.38 | no effect | 1.4 | 0.36 | 1.7 | 0 | 0.34 | C=CCN1C(=O)c2cc(OC)c(OC)cc2[C@H]2C(=O)c3cc4c(cc3[C@H]21)OCO4 (relative stereo) [Compound 22, cis-6-Allyl-5,6,12,13-tetrahydro-2,3-dimethoxy-5,11-dioxo-8,9-(methylenedioxy)-(11H)indeno[1,2-c]isoquinoline] | lower MGM than the lead compound 1 | 0.98 |  |  |  |  |  |  |  |  |  | 
2 |  |  |  |  |  |  | 0 |  | COc1ccc(Cn2c3c(c4cc(OC)c(OC)cc4c2=O)C(=O)c2cc4c(cc2-3)OCO4)cc1 [Compound 13f, 6-(p-Anisyl)-2,3-dimethoxy-5,6-dihydro-5,11-diketo-8,9-methylenedioxy-11H-indeno[1,2-c]isoquinoline] |  |  | > 100 | 76 | > 100 | > 100 | 20 | > 100 | 70 | > 100 | > 100 | 
3 |  |  |  |  |  |  | 0 |  | Cn1c2c(c3ccccc3c1=O)C(=O)c1cc(OCc3ccccc3)c(OCc3ccccc3)cc1-2 [Compound 13g, 8,9-Dibenzyloxy-5,6-dihydro-5,11-diketo-6-methyl-11H-indeno[1,2-c]isoquinoline] |  |  | 88 | > 100 | 93 | > 100 | 72 | > 100 | 82 | > 100 | > 100 | 
4 |  |  |  |  |  |  | 0 |  | COc1cc2c3c(n(C)c(=O)c2cc1OC)-c1cc(OCc2ccccc2)c(OCc2ccccc2)cc1C3=O [Compound 13h, 8,9-Dibenzyloxy-5,6-dihydro-5,11-diketo-6-methyl-2,3-dimethoxy-11H-indeno[1,2-c]isoquinoline] |  |  | > 100 | > 100 | > 100 | > 100 | 46 | 58 | 72 | 39 | 80 | 
5 | > 100 | 55 |  | > 100 | > 100 | > 100 | 0 | > 100 | COc1cc2c3c(n(C)c(=O)c2cc1OC)-c1cc(OC)c(OC)c(OC)c1C3=O [Compound 13i, 5,6-Dihydro-5,11-diketo-6methyl-2,3,8,9,10-pentamethoxy-11H-indeno[1,c]isoquinoline] |  | 95 |  |  |  |  |  |  |  |  |  | IC50 [1]: > 100 µM; IC50 [9]: > 100 µM

Row | Compound | IC50 [2] [µM] | IC50 [3] [µM] | induction of topoisomerase II cleavage complexes [4] | IC50 [5] [µM] | IC50 [6] [µM] | IC50 [7] [µM] | Top 1 Cleavage [10] | IC50 [11] [µM] | cytotoxicity (MGM) relative to lead compound 1 [8] | IC50 [8] [µM] | IC50 [1, 12] [µM] | IC50 [2, 13] [µM] | IC50 [3, 14] [µM] | IC50 [5, 15] [µM] | IC50 [6, 16] [µM] | IC50 [7, 17] [µM] | IC50 ([8]; Homo sapiens) [µM] | IC50 [9, 18] [µM] | IC50 [11, 19] [µM] | further results
6 | COc1cc2c(cc1OC)[C@H]1C(=O)c3cc4c(cc3[C@H]1N(C)C2=O)OCO4 (relative stereo) [Compound 20, cis-5,6,12,13-Tetrahydro-2,3-dimethoxy-6-methyl-5,11-dioxo-8,9(methylenedioxy)-(11H)indeno[1,2-c]isoquinoline] | 4.1 | 0.42 | no effect | 17 | 9.4 | 6.7 | ± (those compounds having less than 20% of the activity of 1 μM camptothecin) | 2 | lower MGM than the lead compound 1 | 5 |  |  |  |  |  |  |  |  |  | IC50 [1]: 2.1 µM; IC50 [9]: 3.1 µM; activity in the topoisomerase I cleavage assay (in words) [10]: weak
7 | CCN1C(=O)c2cc(OC)c(OC)cc2[C@H]2C(=O)c3cc4c(cc3[C@H]21)OCO4 (relative stereo) [Compound 21, cis-6-Ethyl-5,6,12,13-tetrahydro-2,3-dimethoxy-5,11-dioxo-8,9-(methylene-dioxy)-11H-indeno[1,2-c]isoquinoline] | 0.42 | 0.18 | no effect | 0.45 | 0.29 | 0.44 | ± (those compounds having less than 20% of the activity of 1 μM camptothecin) | 0.29 | lower MGM than the lead compound 1 | 0.81 |  |  |  |  |  |  |  |  |  | 
8 | O=C1c2ccccc2-c2c1c1ccccc1c(=O)n2CCCCO [Compound 7, 5,6-Dihydro-6-(4-hydroxy-1-butyl)-5,11-diketo-11H-indeno[1,2-c]isoquinoline] |  |  | weak topoisomerase II activity |  |  |  | + (those compounds having between 20% and 50% of the activity of 1 μM camptothecin) |  |  |  | 7.4 | > 100 | 4.4 | > 100 | 13 | 74 | 16 | 4.6 | 3.2 | cytotoxicity (MGM) relative to lead compound 1 ([8]; comparison in words): lower MGM than the lead compound 1
9 | O=C1c2ccccc2-c2c1c1ccccc1c(=O)n2CCCCCO [Compound 8, 5,6-Dihydroxy-6-(5-hydroxy-1-pentyl)-5,11-diketo-11H-indeno[1,2-c]isoquinoline] | 3.4 | 14.3 | weak topoisomerase II activity | 41 | 4.4 | 93 | + (those compounds having between 20% and 50% of the activity of 1 μM camptothecin) | 3.9 | lower MGM than the lead compound 1 | 14 |  |  |  |  |  |  |  |  |  | 
